Assay results reported in ChEMBL document CHEMBL4364349, “In vitro screening for compounds from Hypericum longistylum with anti-pulmonary fibrosis activity” (Bioorg Med Chem Lett, 2019).

What was measured:
Assay type in all cases: cell-based
[1] = Cytotoxicity against mouse Mlg cells assessed as effect on cell viability up to 80 uM after 24 to 48 hrs by MTT assay
[2] = molecular target: Transforming growth factor beta-1 proprotein/Mothers against decapentaplegic homolog 3 (Mus musculus, UniProt P04202+Q8BUN5); test: Inhibition of TGF beta1/Smad3 signaling in mouse NIH/3T3 cells harboring CAGA promoter incubated for 18 hrs in presence of TGF-beta1 by luciferase reporter gene assay
Transforming growth factor beta-1 proprotein/Mothers against decapentaplegic homolog 3, sequence (P04202 279-390 limits assumed): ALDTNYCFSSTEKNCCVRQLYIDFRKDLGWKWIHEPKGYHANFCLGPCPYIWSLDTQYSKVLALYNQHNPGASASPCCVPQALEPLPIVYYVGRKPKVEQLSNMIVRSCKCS
Transforming growth factor beta-1 proprotein/Mothers against decapentaplegic homolog 3, sequence (Q8BUN5 2-425 limits assumed): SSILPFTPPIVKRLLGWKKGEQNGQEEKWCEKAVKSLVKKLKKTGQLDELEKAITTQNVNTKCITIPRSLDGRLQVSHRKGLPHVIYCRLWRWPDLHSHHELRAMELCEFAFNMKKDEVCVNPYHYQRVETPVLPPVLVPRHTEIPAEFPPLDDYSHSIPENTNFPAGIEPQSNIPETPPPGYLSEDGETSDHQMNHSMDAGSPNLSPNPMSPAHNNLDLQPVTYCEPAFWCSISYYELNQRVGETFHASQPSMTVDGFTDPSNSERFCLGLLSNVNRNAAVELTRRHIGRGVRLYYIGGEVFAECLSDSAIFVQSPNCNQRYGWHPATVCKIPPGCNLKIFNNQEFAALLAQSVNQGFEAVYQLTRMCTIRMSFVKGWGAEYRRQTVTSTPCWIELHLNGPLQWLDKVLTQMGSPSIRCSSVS

[3] = molecular target: Transforming growth factor beta-1 proprotein/Mothers against decapentaplegic homolog 3 (Mus musculus) (UniProt P04202+Q8BUN5); test: Inhibition of TGF beta1/Smad3 signaling in mouse NIH/3T3 cells harboring CAGA promoter at 10 uM incubated for 18 hrs in presence of TGF-beta1 by luciferase reporter gene assay relative to control
Transforming growth factor beta-1 proprotein/Mothers against decapentaplegic homolog 3 (Mus musculus), sequence (P04202 279-390 limits assumed): as the sequence (P04202 279-390 limits assumed) above
Transforming growth factor beta-1 proprotein/Mothers against decapentaplegic homolog 3 (Mus musculus), sequence (Q8BUN5 2-425 partner limits assumed): as the sequence (Q8BUN5 2-425 limits assumed) above

SMILES | Activity [1] | IC50 [2] | inhibition [3]
CC1(C)C[C@H]2[C@H]1CC[C@@]1(C)C[C@]2(O)CC[C@@H]1O | Non-Toxic | 3670 nM | 67.9%
C=C1CC[C@@H](O)[C@]2(C)CC[C@H](C(C)C)[C@@H](O)[C@H]12 | Non-Toxic | – | –
CC(C)[C@H]1CC[C@@]2(C)[C@@H]1[C@@H]1O[C@]1(CO)CC[C@@H]2O [SANICULAMOID B] | Non-Toxic | – | –
C=C[C@](C)(O)CC[C@H]1C(=C)C[C@H](O)[C@H]2C(C)(C)CCC[C@]12C | Non-Toxic | – | –
COc1ccc(C2CC(=O)c3c(O)cc(O)c(C)c3O2)cc1 (stereo not given) | Non-Toxic | 380 nM | 93.1%
CC(C)[C@@H]1CC[C@@]2(C)[C@H](O)CCC(C=O)=C[C@H]12 | Non-Toxic | – | –
Cc1cccc(-c2[nH]c(C(C)(C)C)nc2-c2ccc3nccnc3c2)n1 | Toxic | 70.5 nM | –
CO[C@@]12CC[C@@H](O)[C@@](C)(CC[C@@H]3[C@@H]1CC3(C)C)C2 | Non-Toxic | – | –
C=C1CCC(=O)[C@]2(C)CC[C@@H](C(C)C)[C@@H]2C1O (stereo not given in full) | Non-Toxic | – | –
CC(C)[C@@H]1CC[C@@]2(C)[C@H](O)CCC(CO)=C[C@@H]12 | Non-Toxic | – | –
CC(=O)[C@@H]1CC[C@H]2[C@H]1[C@@H](C(C)C)CC[C@]2(C)O | Non-Toxic | – | –
Cc1ccc(=O)n(-c2ccccc2)c1 [PIRFENIDONE] | – | 1430 nM | –
CC(C)[C@@H]1CC[C@@]2(C)C(=O)CCC(C=O)=C[C@@H]12 | Non-Toxic | – | –
CC(C)[C@@H]1CC[C@@]2(C)[C@H](O)CC[C@@]3(O)CO[C@@H]1[C@@H]32 | Non-Toxic | – | –
C=C1CC[C@@H](O)[C@]2(C)CC[C@@H](C(C)C)[C@H](O)[C@@H]12 | Non-Toxic | – | –
